# Assay results: article PMC5025758 (Nature Communications, 2016)
# B1: β-ketoacyl synthase KasA (Mycobacterium tuberculosis) (enzyme)
# chain: SQPSTANGGFPSVVVTAVTATTSISPDIESTWKGLLAGESGIHALEDEFVTKWDLAVKIGGHLKDPVDSHMGRLDMRRMSYVQRMGKLLGGQLWESAGSPEVDPDRFAVVVGTGLGGAERIVESYDLMNAGGPRKVSPLAVQMIMPNGAAAVIGLQLGARAGVMTPVSACSSGSEAIAHAWRQIVMGDADVAVCGGVEGPIEALPIAAFSMMRAMSTRNDEPERASRPFDKDRDGFVFGEAGALMLIETEEHAKARGAKPLARLLGAGITSDAFHMVAPAADGVRAGRAMTRSLELAGLSPADIDHVNAHGTATPIGDAAEANAIRVAGCDQAAVYAPKSALGHSIGAVGALESVLTVLTLRDGVIPPTLNYETPDPEIDLDVVAGEPRYGDYRYAVNNSFGFGGHNVALAFGRY
# notes: also called Rv2245
# Experiments:
# KasA = KasA (Mycobacterium tuberculosis, UniProt P9WQD9); format: biochemical
# KasA, sequence (P9WQD9 whole entry): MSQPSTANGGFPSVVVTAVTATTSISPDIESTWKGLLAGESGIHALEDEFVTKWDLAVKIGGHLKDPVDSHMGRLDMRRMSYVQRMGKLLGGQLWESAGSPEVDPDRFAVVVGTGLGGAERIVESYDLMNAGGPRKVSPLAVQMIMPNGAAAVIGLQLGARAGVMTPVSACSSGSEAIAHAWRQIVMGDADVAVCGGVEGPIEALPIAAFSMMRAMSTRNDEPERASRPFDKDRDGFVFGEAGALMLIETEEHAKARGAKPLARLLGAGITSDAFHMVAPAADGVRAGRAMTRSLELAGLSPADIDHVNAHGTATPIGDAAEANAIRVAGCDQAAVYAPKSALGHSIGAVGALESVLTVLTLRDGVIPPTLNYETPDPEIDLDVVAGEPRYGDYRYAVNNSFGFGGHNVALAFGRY
# crystal structure = molecular target: the molecule itself; test: crystal structure
Molecule,Kd (KasA) [µM],stoichiometry N (crystal structure)
"CCCCS(=O)(=O)N(C)c1ccc2cnn(C)c2c1 [compound 2, inactive analogue 2]",4.5,–
B1,–,2
